Our source for the TGI values is PubChem BioAssay (NCI).

Some test systems named below: MDA-MB-435; TK-10 renal; K-562 leukemia; ACHN renal; U251 CNS; NCI-H23 lung; RPMI-8226 leukemia; HOP-62 NSCLC; OVCAR-8 ovarian; UO-31 renal.
Holding throughout (assay): NCI anticancer screen, dose series, 48 h

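Assay format: 96-well plates, 48-hour exposure. At the TGI there is no net growth.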 *1 amine or outer side, *2 acyl side, *3 side chain or, on linkers, in order; H or OH if unused. Where a SMILES comes first, the peptide text is derived from it. Bridges are numbered along the chain shown (N, C = ends). Roman numbers before positions name the chains, in order. [ ]: non-standard residue; d: D form. Actinocin(9to1) = Cc1c2oc3c(C)ccc(C(=O)[*:1])c3nc-2c(C(=O)[*:2])c(N)c1=O; NMeV = CN[CH](C(=O)O)C(C)C; Sar = CNCC(=O)O Bounds are passed on as bounds.

For the compound `COC(OC)C1OC(CO)C(n2ccc(N)nc2=O)C1O` (stereo not given), the TGI with MDA-MB-435, in the test on TK-10 renal, in the test on K-562 leukemia, in the test on ACHN renal, with U251 CNS and in the test with NCI-H23 lung was over 100 µM in each case. Moreover, the TGI in the test with RPMI-8226 leukemia, with HOP-62 NSCLC, in the test on OVCAR-8 ovarian and in the test on UO-31 renal was over 100 µM throughout.
As to `COP(=O)(OC)C(Cc1c[nH]c2ccccc12)NC(=O)OCc1ccccc1` (stereo not given), the TGI in the test with MDA-MB-435, in the test with TK-10 renal, in the test on K-562 leukemia, in the test with ACHN renal, with U251 CNS and in the test with NCI-H23 lung was over 100 µM each time. Moreover, the TGI in the test with RPMI-8226 leukemia, with HOP-62 NSCLC, with OVCAR-8 ovarian and in the test with UO-31 renal was over 100 µM in each case.
In the case of `O=C1/C(=C/c2ccccc2[N+](=O)[O-])N=C(c2ccccc2)N1C1Nc2cc3c(cc2S1)NC(N1C(=O)/C(=C/c2ccccc2[N+](=O)[O-])N=C1c1ccccc1)S3` (stereo not given), the TGI in the test with MDA-MB-435, in the test on TK-10 renal, in the test on K-562 leukemia, in the test with ACHN renal, in the test on U251 CNS and with NCI-H23 lung was over 100 µM throughout. For the same compound, the TGI in the test with RPMI-8226 leukemia is 49.7 µM; with HOP-62 NSCLC it was over 100 µM; in the test with OVCAR-8 ovarian, over 100 µM; in the test with UO-31 renal, over 100 µM.
On to `C=C(C)C(=O)[C@@]12C(=O)[C@@H](C)CC[C@H]1[C@H](C)C[C@@H]2C=C(C)C`, for which the TGI in the test on MDA-MB-435 is 54.3 µM; in the test with TK-10 renal it was over 100 µM; in the test on K-562 leukemia, over 100 µM; in the test on ACHN renal, 25.6 µM; with U251 CNS, 49.6 µM; in the test with NCI-H23 lung, 36.3 µM. Also, the TGI with RPMI-8226 leukemia is over 100 µM; with HOP-62 NSCLC, over 100 µM; with OVCAR-8 ovarian it was over 100 µM; in the test on UO-31 renal it was 43 µM.
For the compound `CN(NC(=O)CCCl)C1=NCCCCN1`, the TGI in the test with MDA-MB-435, in the test on TK-10 renal, in the test on K-562 leukemia, with ACHN renal, in the test on U251 CNS and with NCI-H23 lung was over 100 µM in each case. Besides, the TGI in the test on RPMI-8226 leukemia, with HOP-62 NSCLC, with OVCAR-8 ovarian and in the test on UO-31 renal was over 100 µM throughout.
On to `Cc1c2oc3c(C)ccc(C(=O)NC4C(=O)NC(C(C)O)C(=O)N5CCCC5C(=O)N(C)CC(=O)N(C)C(C(C)C)C(=O)OC4C)c3nc-2c(C(=O)NC2C(=O)NC(C(C)O)C(=O)N3CCCC3C(=O)N(C)CC(=O)N(C)C(C(C)C)C(=O)OC2C)c(N)c1=O` (stereo not given) (I: TTP[Sar][NMeV] / II: TTP[Sar][NMeV]; ester I:1-I:C, II:1-II:C; linker I:N-II:N via Actinocin(9to1); configuration not given here), for which the TGI in the test on MDA-MB-435 was 3.81 µM; in the test on TK-10 renal it was 6.18 µM; with K-562 leukemia, 3.43 µM; with ACHN renal it was 10.9 µM; in the test on U251 CNS it was over 100 µM; with NCI-H23 lung, 4.8 µM. In addition, the TGI was 1.55 µM in the test with RPMI-8226 leukemia, 10 µM in the test on HOP-62 NSCLC, over 82.4 µM in the test with OVCAR-8 ovarian and 19.6 µM in the test with UO-31 renal.
